Entries after “also recorded” stand apart in the source; their conditions may differ.
What was measured:
[1] = system: women with postpartum depression; experiment: Mean change in HAM-D score, ganaxolone versus placebo treatment groups; format: in vivo, human; conditions: worded as 'in certain embodiments'
Source text: The Hamilton Depression Rating Scale (HAM-D) is a commonly-used semi-structured clinician-rated instrument which assesses the range of symptoms that are most frequently observed in subjects with major depression. HAM-D has undergone a considerable amount of psychometric study and is accepted as a valid standard of symptom outcome assessment in studies of major depression. In the examples disclosed herein HAM-D was scored using the original 17-item HAM-D scale (HAM-D17).
Administration of ganaxolone in accordance with the methods of the present invention may provide a mean change in HAM-D score (i.e., least-squares (LS) mean reduction) at about 6 hours and/or at about 12 hours and/or about 24 hours (about 1 day) and/or about 48 hours (about 2 days) and/or about 60 hours (about 2.5 days) and/or about 72 hours (about 3 days) and/or about 11 days and/or about 30 days and/or about 34 days of from about 2 to about 17. In the preferred embodiments, the mean change in HAM-D score is greater than placebo.
The primary efficacy endpoint is HAM-D17 total score change from baseline to 60 hours post-infusion (on Day 3) for Cohorts 1-3 and to Day 29 for Cohort 6. The primary analysis in each cohort is done using the mITT set. Although the trial is not powered for inferential analysis and there is no consideration for control of type 1 error across multiple cohorts, a clinically meaningful numeric difference in means of 3-4 points, based on mITT analysis, between ganaxalone and placebo treatment groups is considered an indication of acceptable efficacy and is be the most influential outcome in the overall assessment of the efficacy of ganaxolone in treating PPD.

[2] = Example 3 Phase 2 study of oral ganaxolone in women with PPD: expected plasma concentrations; format: in vivo, human
Experimental: Approximately 172 women aged 18 to 48 years with PPD are screened, and approximately 88 subjects are enrolled into a Phase 2 clinical study. The enrolled subjects are assigned to five groups.
In the first group, approximately 8 subjects are titrated to a total daily oral dose of 900 mg ganaxolone per day (administered in three divided doses per day) over 10 days, followed by a taper over 4 days. For this group ganaxolone doses are titrated from 225 mg on Day 1 to a total daily oral dose of 900 mg starting on Day 7. The ganaxolone mean trough plasma concentrations during the Days 8, 9, and 10 are predicted to be about 40 ng/ml, based on PK modelling. Bedtime doses are selected to be higher than the daytime doses, and are expected to yield plasma mean peak concentrations up to 180 ng/ml during the night on Days 8, 9 and 10.
In the third group, approximately 20 subjects receive ganaxolone administered orally at a dose of 675 mg QHS for 28 days, followed by a taper over 4 days. The trough ganaxolone levels are expected to be below 40 ng/ml.
In the fourth group, approximately 20 subjects receive orally, on the first 2 days, ganaxolone capsules 675 mg at dinner time and 675 mg at bedtime (for a total of 1,350 mg per day on the first 2 days), followed by 26 days of ganaxolone capsules 1,125 mg at dinner time (high fat diet), and a taper over 4 days. […]

[3] = system: female rats; experiment: Pulmonary safety pharmacology in female rats; format: in vivo, rat; conditions: doses up to 40 mg/kg
Experimental: Safety pharmacology studies were conducted with ganaxolone.

[4] = system: subjects; experiment: All completed placebo-controlled clinical studies of ganaxolone: adverse events; format: in vivo, human
Experimental: As of Oct. 10, 2017, 1557 unique subjects have received ganaxolone ranging in duration from 1 day to more than 2 years using doses from 50 to 2000 mg/day in completed studies. Of these subjects, 1527 subjects received oral ganaxolone and 30 subjects received intravenous (IV ganaxolone).
In 20 completed Phase 1 studies, 319 healthy subjects received ganaxolone oral doses of 50 to 2,000 mg/day for periods of up to 2 weeks or IV bolus doses ranging from 10 to 30 mg over durations of 2 minutes to 1 hour or a bolus dose of 6 mg over 5 minutes followed with a continuous infusion of 20 mg per hour for 4 hours.
In the 20 completed Phase 2/3 clinical studies, 1238 unique subjects have received oral ganaxolone in studies of adult subjects with epilepsy, pediatric subjects with seizure disorders, pediatric subjects with FXS, adult subjects with PTSD, and adult subjects with migraine.

[5] = system: mouse model of posttraumatic stress disorder (PTSD); conditions: Pinna and Rasmussen, 2014; cited from earlier work
[6] = IV toxicity in rats, 14 days; conditions: rat, in vivo, iv
[7] = system: rats; experiment: IV toxicity in rats, 14 days; conditions: continuous IV dosing for 14 days
[8] = biological target: human ether-a-go-go related gene (hERG) receptor (Homo sapiens, UniProt Q12809); experiment: hERG interaction (safety pharmacology); conditions: measured concentration of 70 nM (n=2)
Sequence of human ether-a-go-go related gene (hERG) receptor (Q12809 whole entry): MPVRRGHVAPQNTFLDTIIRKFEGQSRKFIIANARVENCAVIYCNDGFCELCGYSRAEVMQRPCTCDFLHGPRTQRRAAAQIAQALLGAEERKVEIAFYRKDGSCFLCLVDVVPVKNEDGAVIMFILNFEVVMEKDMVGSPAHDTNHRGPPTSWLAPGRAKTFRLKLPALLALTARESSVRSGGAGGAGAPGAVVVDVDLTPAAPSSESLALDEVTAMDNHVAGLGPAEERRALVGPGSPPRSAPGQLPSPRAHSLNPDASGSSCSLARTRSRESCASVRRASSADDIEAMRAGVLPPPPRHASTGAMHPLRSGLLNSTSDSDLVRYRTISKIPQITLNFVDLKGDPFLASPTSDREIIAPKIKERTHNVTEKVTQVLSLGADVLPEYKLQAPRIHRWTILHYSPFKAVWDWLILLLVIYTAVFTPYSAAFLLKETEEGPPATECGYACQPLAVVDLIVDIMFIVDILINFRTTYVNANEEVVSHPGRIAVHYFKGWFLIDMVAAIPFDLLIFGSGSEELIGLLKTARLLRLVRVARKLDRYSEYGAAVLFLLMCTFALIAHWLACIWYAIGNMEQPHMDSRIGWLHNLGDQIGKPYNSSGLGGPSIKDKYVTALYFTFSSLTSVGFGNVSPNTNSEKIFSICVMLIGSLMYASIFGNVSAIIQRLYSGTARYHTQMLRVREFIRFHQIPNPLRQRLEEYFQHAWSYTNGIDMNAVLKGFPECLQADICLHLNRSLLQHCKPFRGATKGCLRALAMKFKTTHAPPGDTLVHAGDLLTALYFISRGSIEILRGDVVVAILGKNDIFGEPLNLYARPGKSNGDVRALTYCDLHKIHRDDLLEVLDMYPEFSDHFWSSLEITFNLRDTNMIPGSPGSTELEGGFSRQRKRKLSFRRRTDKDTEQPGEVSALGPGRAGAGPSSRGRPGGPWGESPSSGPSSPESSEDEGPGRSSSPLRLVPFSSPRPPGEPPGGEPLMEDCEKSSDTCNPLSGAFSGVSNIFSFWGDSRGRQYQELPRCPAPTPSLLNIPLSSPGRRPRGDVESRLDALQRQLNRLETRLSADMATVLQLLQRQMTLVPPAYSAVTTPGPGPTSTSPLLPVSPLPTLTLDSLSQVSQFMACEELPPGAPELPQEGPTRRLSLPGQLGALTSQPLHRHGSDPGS

[9] = Tissue distribution of [14C]-ganaxolone; conditions: mouse, rat, brain
[10] = Human pharmacokinetics after oral administration; conditions: in vivo
[11] = In vitro haemolysis / human plasma compatibility

CC(=O)[C@H]1CC[C@H]2[C@@H]3CC[C@H]4C[C@](C)(O)CC[C@]4(C)[C@H]3CC[C@]12C [ganaxolone, 3α-hydroxy-3β-methyl-5α-pregnan-20-one]
Difference between ganaxolone and placebo treatment groups in mean change in HAM-D score ([1]; 12 hours): 0.7 | Difference between ganaxolone and placebo treatment groups in mean change in HAM-D score ([1]; 24 hours): 1.5 | Difference between ganaxolone and placebo treatment groups in mean change in HAM-D score ([1]; 48 hours): 5.6 | Difference between ganaxolone and placebo treatment groups in mean change in HAM-D score ([1]; 60 hours): 4.2 | Difference between ganaxolone and placebo treatment groups in mean change in HAM-D score ([1]; 72 hours): 2.9 | Difference between ganaxolone and placebo treatment groups in mean change in HAM-D score ([1]; 11 days): 5.9 | Difference between ganaxolone and placebo treatment groups in mean change in HAM-D score ([1]; 34 days): 4.1 | Expected plasma mean peak concentrations during the night ([2]; first group, Days 8, 9 and 10): up to 180 ng/ml | Expected trough ganaxolone levels ([2]; third group: 675 mg QHS orally for 28 days): below 40 ng/ml | Pulmonary effects [3]: No pulmonary effects were observed | Incidence of syncope ([4]; 2/993 subjects): 0.2% | Discontinuations due to rash ([4]; 6/993): 0.6% | Subjects with at least 1 treatment emergent adverse event (TEAE) ([4]; 613/993 subjects): 61.7% | Subjects with elevated LFTs (>3×ULN AST and/or ALT) ([4]; Phase 1, 2, and 3 placebo-controlled studies): 0.32% | Events of loss of consciousness ([4]; all placebo-controlled studies): no events of loss of consciousness related to ganaxolone | TEAE dizziness ([4]; human, in vivo): 13.0% | TEAE fatigue ([4]; human, in vivo): 9.7% | TEAE headache ([4]; human, in vivo): 5.5% | TEAE somnolence ([4]; human, in vivo): 22.0% | Aggression and social isolation-induced anxiety-like behaviour [5]: decreased aggression and social isolation-induced anxiety-like behaviour | NOAEL at 14 days ([6]; female): 30 mg/kg/day | NOAEL at 14 days ([6]; male): 42 mg/kg/day | Clinical pathology parameters or histopathology [7]: no ganaxolone-related changes | Interaction with hERG receptor [8]: did not interact | Kp [9]: ~5 | Cmax [10]: 200 to 300 ng/mL | Haemolysis [11]: did not cause haemolysis; also recorded: did not cause hemolysis

Source: patent publication US11266662B2, “Ganaxolone for use in prophylaxis and treatment of postpartum depression” (Marinus Pharmaceuticals, Inc., priority 2018, dated 2022)
